# Test results taken from US10688195B2, “Polymyxin B-coated nanoparticles” (Northwestern University, priority 2016, dated 2020).
# Experiments:
# PA = conditions: free PB for PA; cited from earlier work
# [1] = Serum peak concentration of free PB in mice (literature, ref. 83, and scaling); assay type: in vivo; conditions: 4 mg/kg, estimated by scaling from the 3 mg/kg dose
# Experimental: An appropriate starting dose of free PB in mice is estimated by parameter scaling (ref 57; incorporated by reference in its entirety) to attain Cmax exposures that approximate concentrations obtained in human serum. […] Studies are initiated with a PB dose of 4 mg/kg in mice given by tail vein injection every 12 hr. Mice are monitored for 7 days for signs of toxicity (altered respiratory rate, lack of grooming, decreased activity, weight loss). The dose is increased by 1 mg/kg increments until toxicity is observed. Doses that cause more than temporary symptoms are considered the minimal toxic dose, and the next lower dose will be designated the MTD. The MTD of […] is determined in the same manner, starting with the PB molar equivalent MTD of […].
# [2] = mice, 3 mg/kg PB dose; cited from earlier work
# PA strain PA99 = experiment: Mouse PA abscess model, treatment injected at the site of infection; assay type: in vivo, Pseudomonas aeruginosa; conditions: mice, data not shown
# Experimental: FIG. 17. AuNP-PB administration at time of infection with PA prevents abscess formation. Mice were injected subcutaneously (SC) with 2×10^6 CFU of PA strain PA99 in 25 ul of PBS, and were then immediately treated with 50 ul PBS (SC), AuNP-PB (SC, equivalent of 2 ug PB), AuNP (without PB, SC, equivalent amount), or free PB (1 ug IV). SC injections were at the site of the abscess. Abscess areas were measured at 17 hr post-infection. Each symbol represents a distinct mouse. (A) Injections 5 min post-infection; (B) Injections 2 hr post-infection.
# Experiments conducted during development of embodiments herein employed a mouse PA abscess model in which the heterogenous AuNP-PB are injected directly into the site of infection. This assay has the advantage of determining whether AuNP-PB kill bacteria in vivo in the absence of PK concerns.
# [3] = rats, PB alone; cited from earlier work
substance,measurement,setting,value
polymyxin B [PB],MIC,PA,0.5 to 1.0 µg/mL
same,Cmax,[1],5300 ng/mL
same,Mean peaks (serum),[2],~4 mg/L
same,Bacterial loads,PA strain PA99,below the limit of detection
same,Mean half-life,[3],1.5 h
